Holding throughout (assay): Protein kinase inhibition assay
Holding throughout (assay type): biochemical

The target of test [1] is Blk(m) (Mus musculus, UniProt P16277). To be noted: read-out: percent residual activity of Blk(m). The method, then: (§1) Certain compounds were tested for activity in protein kinase inhibition assays. All substrates were dissolved and diluted to working stocks in de-ionized water, apart from histone H1 (10× working stock in 20 mM MOPS pH 7.0), PDKtide (10× working stock in 50 mM Tris pH 7.0) ATF2 (which is typically stored at a 20× working stock in 50 mM Tris pH 7.5, 150 mM NaCl, 0.1 mM EGTA, 0.03% Brij-35, 50% glycerol, 1 mM benzamidine, 0.2 mM PMSF and 0.1% R-mercaptoethanol), KKLNRTLSFAEPG (SEQ ID NO:203) and RRRLSFAEPG (SEQ ID NO:204) (50 mM HEPES pH 7.4) and GGEEEEYFELVKKKK (SEQ ID NO:205) (20 mM MOPS pH 7.0). All kinases were pre-diluted to a 10× working concentration prior to addition into the assay. The composition of the dilution buffer for each kinase is detailed below.
In a final reaction volume of 25 μl, Blk (m) (5-10 mU) is incubated with 50 mM Tris pH 7.5, 0.1 mM EGTA, 0.1 mM Na3VO4, 0.1% R-mercaptoethanol, 0.1 mg/ml poly(Glu, Tyr) 4:1, 10 mM MgAcetate and [gamma-33P-ATP] (specific activity approx. 500 cpm/pmol, concentration as required). The reaction is initiated by the addition of the MgATP mix. After incubation for 40 minutes at room temperature, the reaction is stopped by the addition of 5 μl of a 3% phosphoric acid solution. […]

The target of test [2] is Flt3(D835Y)(h) (Homo sapiens, UniProt P36888, D835Y). The note with it: read-out: percent residual activity of Flt3(D835Y)(h). As for the experimental part: as §1
(§2) In a final reaction volume of 25 μl, Flt3 (D835Y) (h) (5-10 mU) is incubated with 8 mM MOPS pH 7.0, 0.2 mM EDTA, 50 μM EAIYAAPFAKKK (SEQ ID NO:206), 10 mM MgAcetate and [gamma-33P-ATP] (specific activity approx. 500 cpm/pmol, concentration as required). The reaction is initiated by the addition of the MgATP mix. After incubation for 40 minutes at room temperature, the reaction is stopped by the addition of 5 μl of a 3% phosphoric acid solution. 10 μl of the reaction is then spotted onto a P30 filtermat and washed three times for 5 minutes in 75 mM phosphoric acid and once in methanol prior to drying and scintillation counting.

In test [3] the target is TrkB(h) (Homo sapiens, UniProt Q16620). To be noted: read-out: percent residual activity of TrkB(h). As for the experimental part:
as §1
as §2, with “TrkB” for “Flt3 (D835Y)”, “0.1 mg/ml poly(Glu, Tyr) 4:1,” for “50 μM EAIYAAPFAKKK (SEQ ID NO:206),”, “Filtermat A” for “P30 filtermat”

Test [4] concerns the target MST1(h) (Homo sapiens, UniProt Q13043). To be noted: read-out: percent residual activity of MST1(h). As for the experimental part:
as §1
as §2, with “μl, MST1” for “μl, Flt3 (D835Y)”, “EDTA, 250” for “EDTA, 50”, “μM KKSRGDYMTMQIG” for “μM EAIYAAPFAKKK”, “ID NO:210),” for “ID NO:206),”

The target in test [5] is EGFR(L858R)(h) (Homo sapiens, UniProt P00533, L858R). The note with it: read-out: percent residual activity of EGFR(L858R)(h). As for the experimental part: as §1
as §2, with “EGFR (L858R)” for “Flt3 (D835Y)”, “0.1 mg/ml poly(Glu, Tyr) 4:1,” for “50 μM EAIYAAPFAKKK (SEQ ID NO:206),”, “Filtermat A” for “P30 filtermat”

Test [6] deals with CDK2/cyclinA(h) (Homo sapiens, UniProt P24941). The note with it: read-out: percent residual activity of CDK2/cyclinA(h). As for the experimental part: as §1
as §2, with “CDK2/cyclinA” for “Flt3 (D835Y)”, “0.1 mg/ml histone H1,” for “50 μM EAIYAAPFAKKK (SEQ ID NO:206),”

Sequence of Blk(m) (P16277 whole entry): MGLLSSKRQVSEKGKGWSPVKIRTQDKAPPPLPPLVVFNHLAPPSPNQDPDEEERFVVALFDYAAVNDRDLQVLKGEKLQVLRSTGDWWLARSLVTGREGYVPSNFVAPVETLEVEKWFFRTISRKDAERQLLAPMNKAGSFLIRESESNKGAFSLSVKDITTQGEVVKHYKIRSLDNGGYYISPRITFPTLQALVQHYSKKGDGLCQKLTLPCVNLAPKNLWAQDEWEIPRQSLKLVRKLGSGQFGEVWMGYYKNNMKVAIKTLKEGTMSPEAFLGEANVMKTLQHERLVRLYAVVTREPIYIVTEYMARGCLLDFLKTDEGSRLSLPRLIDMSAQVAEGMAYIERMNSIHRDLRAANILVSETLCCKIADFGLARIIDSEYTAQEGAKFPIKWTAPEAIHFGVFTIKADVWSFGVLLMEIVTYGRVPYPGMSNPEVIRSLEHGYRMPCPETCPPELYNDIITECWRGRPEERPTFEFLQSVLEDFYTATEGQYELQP
Sequence of EGFR(L858R)(h) (P00533 25-1210 L858R): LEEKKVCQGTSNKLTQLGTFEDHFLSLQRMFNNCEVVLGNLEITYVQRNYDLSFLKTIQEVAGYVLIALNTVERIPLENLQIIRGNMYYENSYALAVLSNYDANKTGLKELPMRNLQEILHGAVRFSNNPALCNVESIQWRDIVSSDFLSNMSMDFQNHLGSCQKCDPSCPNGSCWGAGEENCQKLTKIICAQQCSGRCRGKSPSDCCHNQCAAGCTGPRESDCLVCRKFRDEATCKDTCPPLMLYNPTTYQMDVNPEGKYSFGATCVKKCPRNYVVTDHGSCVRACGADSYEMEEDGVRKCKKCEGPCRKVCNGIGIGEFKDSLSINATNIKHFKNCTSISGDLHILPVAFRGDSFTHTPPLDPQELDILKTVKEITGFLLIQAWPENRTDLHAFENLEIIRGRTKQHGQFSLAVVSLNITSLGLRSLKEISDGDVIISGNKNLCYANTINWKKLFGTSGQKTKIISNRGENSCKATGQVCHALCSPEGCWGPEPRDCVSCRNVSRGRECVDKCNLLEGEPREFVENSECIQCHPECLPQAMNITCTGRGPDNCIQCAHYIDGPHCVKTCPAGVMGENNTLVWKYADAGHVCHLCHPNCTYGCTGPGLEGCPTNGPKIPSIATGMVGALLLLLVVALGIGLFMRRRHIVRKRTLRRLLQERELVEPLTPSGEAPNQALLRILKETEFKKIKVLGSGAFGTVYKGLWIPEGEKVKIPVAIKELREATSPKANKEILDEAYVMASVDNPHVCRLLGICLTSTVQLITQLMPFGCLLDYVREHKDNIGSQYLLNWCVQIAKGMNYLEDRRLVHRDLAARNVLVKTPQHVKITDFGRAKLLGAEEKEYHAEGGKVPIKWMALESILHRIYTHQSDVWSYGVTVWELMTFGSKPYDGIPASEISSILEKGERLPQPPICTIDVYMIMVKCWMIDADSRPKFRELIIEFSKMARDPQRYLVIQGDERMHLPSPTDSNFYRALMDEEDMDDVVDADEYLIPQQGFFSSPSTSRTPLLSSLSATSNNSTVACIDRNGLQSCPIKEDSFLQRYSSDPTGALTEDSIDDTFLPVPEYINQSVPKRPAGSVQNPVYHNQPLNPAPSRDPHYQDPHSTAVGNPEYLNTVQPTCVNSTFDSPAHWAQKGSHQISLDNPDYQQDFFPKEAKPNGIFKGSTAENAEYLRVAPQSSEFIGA
Sequence of MST1(h) (Q13043 whole entry): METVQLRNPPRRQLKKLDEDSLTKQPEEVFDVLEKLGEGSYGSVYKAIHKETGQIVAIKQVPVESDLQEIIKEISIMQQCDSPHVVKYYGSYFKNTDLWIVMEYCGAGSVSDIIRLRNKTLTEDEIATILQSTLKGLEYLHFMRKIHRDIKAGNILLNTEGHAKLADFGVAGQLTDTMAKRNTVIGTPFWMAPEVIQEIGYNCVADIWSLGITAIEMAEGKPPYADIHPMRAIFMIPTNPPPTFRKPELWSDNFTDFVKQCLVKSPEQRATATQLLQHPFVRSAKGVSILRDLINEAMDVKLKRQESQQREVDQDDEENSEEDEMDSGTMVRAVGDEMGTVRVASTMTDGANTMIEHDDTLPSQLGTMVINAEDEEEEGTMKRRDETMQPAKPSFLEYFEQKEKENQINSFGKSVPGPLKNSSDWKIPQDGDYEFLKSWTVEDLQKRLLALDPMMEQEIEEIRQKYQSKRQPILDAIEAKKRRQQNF
Sequence of TrkB(h) (Q16620 32-822): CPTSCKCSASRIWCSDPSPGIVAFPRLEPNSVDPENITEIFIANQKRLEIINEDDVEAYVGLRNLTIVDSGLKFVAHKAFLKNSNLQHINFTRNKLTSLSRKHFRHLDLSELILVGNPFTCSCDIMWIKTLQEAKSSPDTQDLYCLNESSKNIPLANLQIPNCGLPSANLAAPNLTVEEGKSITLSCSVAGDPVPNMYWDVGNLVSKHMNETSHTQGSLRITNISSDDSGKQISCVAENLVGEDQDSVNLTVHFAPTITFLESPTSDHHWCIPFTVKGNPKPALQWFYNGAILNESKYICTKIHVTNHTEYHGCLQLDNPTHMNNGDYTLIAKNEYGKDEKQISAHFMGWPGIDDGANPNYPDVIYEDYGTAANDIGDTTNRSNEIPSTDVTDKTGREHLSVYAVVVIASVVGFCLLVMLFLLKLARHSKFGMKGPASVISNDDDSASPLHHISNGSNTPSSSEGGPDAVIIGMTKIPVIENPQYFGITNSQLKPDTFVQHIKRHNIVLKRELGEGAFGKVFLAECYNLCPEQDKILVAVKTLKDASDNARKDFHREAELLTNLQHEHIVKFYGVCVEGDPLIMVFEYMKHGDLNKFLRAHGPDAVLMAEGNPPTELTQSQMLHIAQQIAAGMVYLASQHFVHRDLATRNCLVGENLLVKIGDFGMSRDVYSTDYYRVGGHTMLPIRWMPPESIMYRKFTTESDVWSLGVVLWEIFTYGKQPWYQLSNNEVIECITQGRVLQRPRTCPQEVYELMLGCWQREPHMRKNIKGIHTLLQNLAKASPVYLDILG

On to `CN1CCCC1CCNC(=O)c1cn2c3c(c(N4CCC(c5cnccn5)C4)c(F)cc3c1=O)Oc1cc3ccccc3cc1-2` (stereo not drawn) [Compound A-1], for which the remaining activity at 2.5 µM in test [1] stood at 117%; in test [2], 36%; in test [3], 44%; in test [4], 76%; in test [5], 113%; in test [6], 86%.

For `CC(=O)N1CCN(c2ccc3c(=O)c(C(=O)NCCN4CCCC4)c4n(C)c5ccccc5n4c3n2)CC1` [Compound B-1], the remaining activity at 2.5 µM in test [1] was 106%; in test [2], 78%; in test [3], 118%; in test [4], 96%; in test [5], 109%; in test [6], 94%.
